Measurements as given in patent US20170008888A1 (KYORIN PHARMACEUTICAL CO., LTD., priority 2014, published 2017).
Where two headings read alike, the source gives them in different places.

Legend:
Assay type in all cases: binding
[1] = target: T1, AurA (Homo sapiens, UniProt O14965); experiment: Probe-based (AX9989) kinase profiling in Jurkat lysate: AurA; details: for inhibition at 0.1 µM: screening concentration 0.1 μM
T1 construct: screened for activity against several kinases in Jurkat cells; endogenous in cells; host or cells: Jurkat cell lysate
T1 sequence (O14965 1-403): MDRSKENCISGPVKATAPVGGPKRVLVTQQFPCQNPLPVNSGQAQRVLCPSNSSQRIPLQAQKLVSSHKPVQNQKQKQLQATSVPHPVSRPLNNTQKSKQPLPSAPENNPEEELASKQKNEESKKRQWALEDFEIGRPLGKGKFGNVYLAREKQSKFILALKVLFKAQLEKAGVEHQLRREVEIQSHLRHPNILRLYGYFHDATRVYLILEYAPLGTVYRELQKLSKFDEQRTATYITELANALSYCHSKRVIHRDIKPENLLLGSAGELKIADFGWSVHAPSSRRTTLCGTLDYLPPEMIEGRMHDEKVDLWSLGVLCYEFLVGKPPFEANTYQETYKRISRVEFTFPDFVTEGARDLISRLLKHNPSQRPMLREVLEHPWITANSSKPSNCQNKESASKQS
How it was run: (§1)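 Jurkat lysate, HEPES pH 7.5 buffer + 20 mM MnCl2; cpd 15 min RT; AX9989 ATP probe 5 μM final, RT. Trypsin digest, streptavidin capture, LC/MS; % inhibition vs vehicle from labeled-peptide signal.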

[2] = target: T2, JAK1 (Homo sapiens, UniProt P23458); experiment: Probe-based (AX9989) kinase profiling in Jurkat lysate: JAK1; details: for inhibition at 0.1 µM: screening concentration 0.1 μM
T2 construct: screened for activity against several kinases in Jurkat cells; endogenous in cells; host or cells: Jurkat cell lysate
How it was run: as §1

[3] = target: T3, BRD4 bromodomain domain I [BRD4(1)] (Homo sapiens, UniProt O60885); experiment: BRD4 bromodomain domain 1 inhibition assay (TR-FRET); details: screening concentration 10 μM
T3 construct: BRD4 bromodomain domain I [BRD4(1)]; purchased Cayman Chemicals
How it was run: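 0.5% DMSO, in triplicate, using Cayman BRD4(1) TR-FRET protocol with slight modification. 670/620 nm ratio normalized to 10 μM JQ1, with DMSO control set as 0% inhibition.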

[4] = test system: AMPKa1 or AMPKa2; experiment: Probe-based (AX9989) kinase profiling in Jurkat lysate: AMPKa1 or AMPKa2; details: for AMPKa1 or AMPKa2 Inhibition % at indicated screening concentration: screening concentration 1 μM
How it was run: as §1

[5] = test system: AurB or AurC; experiment: Probe-based (AX9989) kinase profiling in Jurkat lysate: AurB or AurC; details: for AurB or AurC Inhibition % at indicated screening concentration: screening concentration 1 μM
How it was run: as §1

[6] = screening concentration 1.0 μM, read-out: Kinase inhibition % at indicated screening concentration: AurA
[7] = screening concentration 1.0 μM, read-out: Kinase inhibition % at indicated screening concentration: JAK1
[8] = read-out: Kinase inhibition % at indicated screening concentration: AurA
[9] = read-out: Kinase inhibition % at indicated screening concentration: JAK1
[10] = screening concentration 1 μM, read-out: AurA Inhibition % at indicated screening concentration
[11] = screening concentration 1 μM, read-out: JAK1 Inhibition % at indicated screening concentration
[12] = screening concentration 10.0 μM

T2 sequence (P23458 whole entry): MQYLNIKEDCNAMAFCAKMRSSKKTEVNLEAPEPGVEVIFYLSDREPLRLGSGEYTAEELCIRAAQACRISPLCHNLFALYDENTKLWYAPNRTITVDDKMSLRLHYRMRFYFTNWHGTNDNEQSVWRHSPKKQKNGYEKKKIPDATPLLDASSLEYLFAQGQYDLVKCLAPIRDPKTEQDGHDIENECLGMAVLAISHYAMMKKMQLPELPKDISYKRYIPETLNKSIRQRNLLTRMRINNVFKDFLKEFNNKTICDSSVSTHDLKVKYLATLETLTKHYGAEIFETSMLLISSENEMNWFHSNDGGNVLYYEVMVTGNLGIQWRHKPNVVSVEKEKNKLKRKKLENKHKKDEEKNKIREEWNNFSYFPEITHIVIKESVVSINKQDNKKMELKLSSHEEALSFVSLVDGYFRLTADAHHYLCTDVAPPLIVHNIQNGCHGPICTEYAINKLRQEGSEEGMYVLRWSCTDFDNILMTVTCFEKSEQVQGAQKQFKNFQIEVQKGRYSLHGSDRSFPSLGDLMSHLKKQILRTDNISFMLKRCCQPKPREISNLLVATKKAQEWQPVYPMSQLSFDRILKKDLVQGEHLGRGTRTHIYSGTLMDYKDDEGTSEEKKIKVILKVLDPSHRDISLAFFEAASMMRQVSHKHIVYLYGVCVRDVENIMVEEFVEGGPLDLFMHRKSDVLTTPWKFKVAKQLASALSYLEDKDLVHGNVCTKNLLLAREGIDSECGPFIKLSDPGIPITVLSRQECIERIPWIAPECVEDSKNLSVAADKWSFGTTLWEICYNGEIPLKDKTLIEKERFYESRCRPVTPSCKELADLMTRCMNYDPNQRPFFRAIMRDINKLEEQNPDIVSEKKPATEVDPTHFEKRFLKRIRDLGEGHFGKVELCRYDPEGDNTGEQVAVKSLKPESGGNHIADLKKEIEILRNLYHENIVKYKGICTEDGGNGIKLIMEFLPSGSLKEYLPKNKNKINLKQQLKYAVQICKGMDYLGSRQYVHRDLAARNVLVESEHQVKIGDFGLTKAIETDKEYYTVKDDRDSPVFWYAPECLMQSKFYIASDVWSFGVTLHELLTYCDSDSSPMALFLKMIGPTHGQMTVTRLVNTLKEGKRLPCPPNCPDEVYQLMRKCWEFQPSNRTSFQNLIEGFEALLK

Structure (SMILES)	inhibition at 1 µM [1, 6]	inhibition at 1 µM [2, 7]	inhibition at 10 µM [3]	Kinase inhibition % at indicated screening concentration: AMPKa1 or AMPKa2 ([4]; screening concentration 1.0 μM)	Kinase inhibition % at indicated screening concentration: AurB or AurC ([5]; screening concentration 1.0 μM)	inhibition at 0.1 µM [1, 8]	inhibition at 0.1 µM [2, 9]	Kinase inhibition % at indicated screening concentration: AMPKa1 or AMPKa2 ([4]; screening concentration 0.1 μM)	Kinase inhibition % at indicated screening concentration: AurB or AurC ([5]; screening concentration 0.1 μM)	other results
CCOc1cc(C(=O)N2CCN(CCOCCO)CC2)ccc1Nc1cc2c(cn1)N(C)C(=O)c1ccccc1N2C [Compound 6]	≤ 35%	≤ 35%	> 85%	E (E is ≦35%)	E (E is ≦35%)					
CCOc1cc(C(=O)NCCN(CC)CC)ccc1Nc1cc2c(cn1)N(C)C(=O)c1ccccc1N2C [Compound 103]			70 to 85%			≤ 35%	≤ 35%	E (E is ≦35%)	E (E is ≦35%)	
CCOc1cc(C(=O)N2CC[C@@H](N3CCCCC3)C2)ccc1Nc1cc2c(cn1)N(C)C(=O)c1occc1N2C [Compound 56]			> 85%			≤ 35%	≤ 35%	E (E is ≦35%)	E (E is ≦35%)	
CCOc1cc(C(=O)NC2CCOCC2)ccc1Nc1cc2c(cn1)N(C)C(=O)c1ccccc1N2C [Compound 80]	≤ 35%	≤ 35%	< 70%	E (E is ≦35%)	E (E is ≦35%)					
CCOc1cc(C(=O)N2CCC(F)C2)ccc1Nc1cc2c(cn1)N(C)C(=O)c1occc1N2C (centres unmarked) [Compound 72]			70 to 85%			≤ 35%	≤ 35%	E (E is ≦35%)	E (E is ≦35%)	
CN1C(=O)c2ccccc2N(C)c2cc(NC3CCC(C(=O)NC4CCOCC4)CC3)ncc21 (centres unmarked) [Compound 64]	≤ 35%	≤ 35%	< 70%	E (E is ≦35%)	E (E is ≦35%)					
CN1CCC(N2CCN(C(=O)c3ccc(Nc4cc5c(cn4)N(C)C(=O)c4ccccc4N5C)c(F)c3)CC2)CC1 [Compound T70]			< 70%							inhibition at 1 µM [1, 10]: ≤ 35%; inhibition at 1 µM [2, 11]: ≤ 35%; AMPKa1 or AMPKa2 Inhibition % at indicated screening concentration [4]: E (E is ≦35%); AurB or AurC Inhibition % at indicated screening concentration [5]: E (E is ≦35%)
CN1CCC(N2CCN(C(=O)c3ccc(Nc4cc5c(cn4)N(C)C(=O)c4ccccc4N5C)c(OC(F)F)c3)CC2)CC1 [Compound T76]			70 to 85%							inhibition at 1 µM [1, 10]: ≤ 35%; inhibition at 1 µM [2, 11]: ≤ 35%; AMPKa1 or AMPKa2 Inhibition % at indicated screening concentration [4]: E (E is ≦35%); AurB or AurC Inhibition % at indicated screening concentration [5]: E (E is ≦35%)
CN1C(=O)c2ccccc2N(C)c2cc(N[C@H]3CC[C@H](N4CCCC4)CC3)ncc21 [Compound 74]	≤ 35%	≤ 35%	< 70%	E (E is ≦35%)	E (E is ≦35%)					
CCOc1cc(C(=O)N[C@@H]2CCCOC2)ccc1Nc1cc2c(cn1)N(C)C(=O)c1ccccc1N2C [Compound 69]	≤ 35%	≤ 35%	< 70%	E (E is ≦35%)	E (E is ≦35%)					

Further lines, with some results ahead:

inhibition at 1 µM [1, 6]	inhibition at 1 µM [2, 7]	inhibition at 10 µM [3]	Kinase inhibition % at indicated screening concentration: AMPKa1 or AMPKa2 ([4]; screening concentration 1.0 μM)	Kinase inhibition % at indicated screening concentration: AurB or AurC ([5]; screening concentration 1.0 μM)	inhibition at 0.1 µM [1, 8]	inhibition at 0.1 µM [2, 9]	Kinase inhibition % at indicated screening concentration: AMPKa1 or AMPKa2 ([4]; screening concentration 0.1 μM)	Kinase inhibition % at indicated screening concentration: AurB or AurC ([5]; screening concentration 0.1 μM)	Structure (SMILES)	other results
≤ 35%	≤ 35%	< 70%	E (E is ≦35%)	E (E is ≦35%)					CCOc1cc(C(=O)NCC2CC2)ccc1Nc1cc2c(cn1)N(C)C(=O)c1ccccc1N2C [Compound 57]	
≤ 35%	≤ 35%	70 to 85%	E (E is ≦35%)	E (E is ≦35%)					CCOc1cc(C(=O)N2CCC(O)CC2)ccc1Nc1cc2c(cn1)N(C)C(=O)c1ccccc1N2C [Compound 52]	
		70 to 85%			≤ 35%	≤ 35%	E (E is ≦35%)	E (E is ≦35%)	CCOc1cc(C(=O)N2CCN(C(C)(C)C)CC2)ccc1Nc1cc2c(cn1)N(C)C(=O)c1ccccc1N2C [Compound 94]	
≤ 35%	≤ 35%	> 85%	E (E is ≦35%)	E (E is ≦35%)					CCOc1cc(C(=O)N2CCC(CN3CCOCC3)CC2)ccc1Nc1cc2c(cn1)N(C)C(=O)c1ccccc1N2C [Compound 120]	
≤ 35%	≤ 35%	70 to 85%	E (E is ≦35%)	E (E is ≦35%)					CCOc1cc(C(=O)N2CCNCC2)ccc1Nc1cc2c(cn1)N(C)C(=O)c1ccccc1N2C [Compound 62]	
≤ 35%	≤ 35%	70 to 85%	E (E is ≦35%)	E (E is ≦35%)					CCOc1cc(C(=O)N2CCCN(C)CC2)ccc1Nc1cc2c(cn1)N(C)C(=O)c1ccccc1N2C [Compound 8]	
≤ 35%	≤ 35%	70 to 85%	E (E is ≦35%)	E (E is ≦35%)					CCOc1cc(C(=O)N2CC[C@@H](N(C)C)C2)ccc1Nc1cc2c(cn1)N(C)C(=O)c1ccccc1N2C [Compound 115]	
		70 to 85%			≤ 35%	≤ 35%	E (E is ≦35%)	E (E is ≦35%)	CCOc1cc(C(=O)N2CCN(CC3CC3)CC2)ccc1Nc1cc2c(cn1)N(C)C(=O)c1ccccc1N2C [Compound 10]	
		70 to 85%			≤ 35%	≤ 35%	E (E is ≦35%)	E (E is ≦35%)	COc1cc(C(=O)N2CCC(N(C)C)C2)ccc1Nc1cc2c(cn1)N(C)C(=O)c1ccccc1N2C (centres unmarked) [Compound 70]	
		< 70%							CN1C(=O)c2ccccc2N(C)c2cc(Nc3ccc(C(=O)N4CC[C@@H](N(C)C)C4)cc3F)ncc21 [Compound 110]	inhibition at 10 µM ([1]; screening concentration 10.0 μM, read-out: Kinase inhibition % at indicated screening concentration: AurA): 35 to 50%; inhibition at 10 µM ([2]; screening concentration 10.0 μM, read-out: Kinase inhibition % at indicated screening concentration: JAK1): ≤ 35%; Kinase inhibition % at indicated screening concentration: AMPKa1 or AMPKa2 [4, 12]: E (E is ≦35%); Kinase inhibition % at indicated screening concentration: AurB or AurC [5, 12]: C (C is >50% to ≦75%)
		> 85%			≤ 35%	≤ 35%	E (E is ≦35%)	E (E is ≦35%)	CCOc1cc(C(=O)N2CCNC[C@H]2C)ccc1Nc1cc2c(cn1)N(C)C(=O)c1ccccc1N2C [Compound 82]	
≤ 35%	≤ 35%	> 85%	E (E is ≦35%)	E (E is ≦35%)					CCOc1cc(C(=O)N2CCC(N3CCCC3)CC2)ccc1Nc1cc2c(cn1)N(C)C(=O)c1ccccc1N2C [Compound 46, 3-(2-Ethoxy-4-(4-(pyrrolidin-1-yl)piperidine-1-carbonyl)phenylamino)-5,11-dimethyl-5H-benzo[e]pyrido[3,4-b][1,4]diazepin-10(11H)-one]	
